Data published in PubChem BioAssay AID1259407 (Chemical Carcinogenesis Research Information System (CCRIS), 2018).
Calls of active or inactive are those of the source. No rule for the calls is given here.

Test system: CCRIS mutagenicity, Ames/micronucleus/aberration tests
Assay: CCRIS mutagenicity studies
[1] = Test System: AMES SALMONELLA TYPHIMURIUM, Strain/Indicator: TA98, Metabolic Activation: NONE, Method: STANDARD PLATE
[2] = Test System: AMES SALMONELLA TYPHIMURIUM, Strain/Indicator: TA100, Metabolic Activation: NONE, Method: STANDARD PLATE
[3] = Test System: AMES SALMONELLA TYPHIMURIUM, Strain/Indicator: TA1535, Metabolic Activation: NONE, Method: STANDARD PLATE
[4] = Test System: AMES SALMONELLA TYPHIMURIUM, Strain/Indicator: TA1537, Metabolic Activation: NONE, Method: STANDARD PLATE
[5] = Test System: AMES SALMONELLA TYPHIMURIUM, Strain/Indicator: TA1538, Metabolic Activation: NONE, Method: STANDARD PLATE
[6] = Test System: AMES SALMONELLA TYPHIMURIUM, Strain/Indicator: TA98, Metabolic Activation: RAT, LIVER, S-9, AROCLOR 1254, Method: STANDARD PLATE
[7] = Test System: AMES SALMONELLA TYPHIMURIUM, Strain/Indicator: TA100, Metabolic Activation: RAT, LIVER, S-9, AROCLOR 1254, Method: STANDARD PLATE

Measured: mutagenic call

CN(C)CCCNc1c2ccccc2nc2cccc([N+](=O)[O-])c12
inactive: [3] inactive; negative | Test System: Escherichia coli, Strain/Indicator: CC111 (A7 to A6 frameshifts), Metabolic Activation: None, Method: Modified preincubation inactive; negative
active: Test System: AMES SALMONELLA TYPHIMURIUM, Strain/Indicator: TA98(1,8-DNP6), Metabolic Activation: NONE, Method: STANDARD PLATE active; positive | Test System: AMES SALMONELLA TYPHIMURIUM, Strain/Indicator: TA98(1,8-DNP6), Metabolic Activation: RAT, LIVER, S-9, Method: STANDARD PLATE active; positive | Test System: AMES SALMONELLA TYPHIMURIUM, Strain/Indicator: TA98(NR), Metabolic Activation: NONE, Method: STANDARD PLATE active; positive | Test System: AMES SALMONELLA TYPHIMURIUM, Strain/Indicator: TA98(NR), Metabolic Activation: RAT, LIVER, S-9, Method: STANDARD PLATE active; positive | [1] active; positive | Test System: AMES SALMONELLA TYPHIMURIUM, Strain/Indicator: TA98, Metabolic Activation: RAT, LIVER, S-9, Method: STANDARD PLATE active; positive | [2] active; positive | [4] active; positive | Test System: AMES SALMONELLA TYPHIMURIUM, Strain/Indicator: TA1537 PKM101, Metabolic Activation: NONE, Method: STANDARD PLATE active; positive | [5] active; positive | Test System: CHINESE HAMSTER V-79, Strain/Indicator: V-79/6-THIOGUANINE, Metabolic Activation: NONE, Method: STANDARD PLATE active; positive | Test System: CHINESE HAMSTER V-79, Strain/Indicator: V-79/OUABAIN, Metabolic Activation: NONE, Method: STANDARD PLATE active; positive | Test System: Escherichia coli, Strain/Indicator: CC107 (G6 to G7 frameshifts), Metabolic Activation: None, Method: Modified preincubation active; positive | Test System: Escherichia coli, Strain/Indicator: CC108 (G6 to G5 frameshifts), Metabolic Activation: None active; positive | Test System: Escherichia coli, Strain/Indicator: CC109 (CG5 to CG4 frameshifts), Metabolic Activation: None, Method: Modified preincubation active; positive

O=[N+]([O-])c1ccc2[nH]ncc2c1
inactive: Test System: MOUSE LYMPHOMA, Strain/Indicator: L5178Y (TK+/TK-), Metabolic Activation: NONE, Method: SUSPENSION/PLATE inactive; negative. reevaluation of results: negative | Test System: MOUSE LYMPHOMA, Strain/Indicator: L5178Y (TK+/TK-), Metabolic Activation: RAT, LIVER, S-9, AROCLOR 1254, Method: SUSPENSION/PLATE inactive; negative. reevaluation of results: negative
active: Test System: AMES SALMONELLA TYPHIMURIUM, Strain/Indicator: TA98, Metabolic Activation: HAMSTER, LIVER, S-9, AROCLOR 1254, Method: STANDARD PLATE active; positive | [1] active; positive | [6] active; positive | Test System: AMES SALMONELLA TYPHIMURIUM, Strain/Indicator: TA100, Metabolic Activation: HAMSTER, LIVER, S-9, AROCLOR 1254, Method: STANDARD PLATE active; positive | [2] active; positive | [7] active; positive

P
inactive: Test System: AMES SALMONELLA TYPHIMURIUM, Strain/Indicator: TA98, Metabolic Activation: NONE, Method: GAS EXPOSURE inactive; negative | Test System: AMES SALMONELLA TYPHIMURIUM, Strain/Indicator: TA98, Metabolic Activation: RAT LIVER S-9, PHENOBARBITAL AND BETA-NAPHTHOFLAVONE, Method: GAS EXPOSURE inactive; negative | Test System: AMES SALMONELLA TYPHIMURIUM, Strain/Indicator: TA100, Metabolic Activation: NONE, Method: GAS EXPOSURE inactive; negative | Test System: AMES SALMONELLA TYPHIMURIUM, Strain/Indicator: TA100, Metabolic Activation: RAT LIVER S-9, PHENOBARBITAL AND BETA-NAPHTHOFLAVONE, Method: GAS EXPOSURE inactive; negative | Test System: AMES SALMONELLA TYPHIMURIUM, Strain/Indicator: TA1535, Metabolic Activation: NONE, Method: GAS EXPOSURE inactive; negative | Test System: AMES SALMONELLA TYPHIMURIUM, Strain/Indicator: TA1535, Metabolic Activation: RAT LIVER S-9, PHENOBARBITAL AND BETA-NAPHTHOFLAVONE, Method: GAS EXPOSURE inactive; negative | Test System: AMES SALMONELLA TYPHIMURIUM, Strain/Indicator: TA1537, Metabolic Activation: NONE, Method: GAS EXPOSURE inactive; negative | Test System: AMES SALMONELLA TYPHIMURIUM, Strain/Indicator: TA1537, Metabolic Activation: RAT LIVER S-9, PHENOBARBITAL AND BETA-NAPHTHOFLAVONE, Method: GAS EXPOSURE inactive; negative | Test System: E.COLI, Strain/Indicator: WP2UVRA, Metabolic Activation: NONE, Method: GAS EXPOSURE inactive; negative | Test System: E.COLI, Strain/Indicator: WP2UVRA, Metabolic Activation: RAT LIVER S-9, PHENOBARBITAL AND BETA-NAPHTHOFLAVONE, Method: GAS EXPOSURE inactive; negative

c1ccc2c(c1)cc1c3c2ccc2cccc(c23)C1
active: [6] active; positive | [7] active; positive
inactive: [1] inactive; negative

Nc1cccc2c1C(=O)c1cccc(N)c1C2=O
active: [6] active; positive | Test System: AMES SALMONELLA TYPHIMURIUM, Strain/Indicator: TA1538, Metabolic Activation: RAT, LIVER, S-9, AROCLOR 1254, Method: STANDARD PLATE active; positive
inactive: [1] inactive; negative | [2] inactive; negative | [7] inactive; negative | [3] inactive; negative | Test System: AMES SALMONELLA TYPHIMURIUM, Strain/Indicator: TA1535, Metabolic Activation: RAT, LIVER, S-9, AROCLOR 1254, Method: STANDARD PLATE inactive; negative | [4] inactive; negative | [5] inactive; negative

O[C@@H]1C=Cc2c(cc3ccc4cccc5ccc2c3c45)[C@H]1O
active: Test System: CHINESE HAMSTER V-79, Strain/Indicator: V-79/OUABAIN, Metabolic Activation: HAMSTER, EMBRYO, CELL-MEDIATED, Method: STANDARD PLATE active; positive

CCOC(=O)C(=NNc1ccc(-c2ccc(NN=C(C(=O)OCC)C(=O)OCC)c(Cl)c2)cc1Cl)C(=O)OCC
inactive: Test System: AMES SALMONELLA TYPHIMURIUM, Strain/Indicator: TA98, Metabolic Activation: HAMSTER, LIVER, S-9, Method: PREINCUBATION (PRIVAL METHOD) inactive; negative | Test System: AMES SALMONELLA TYPHIMURIUM, Strain/Indicator: TA98, Metabolic Activation: NONE, Method: PREINCUBATION (PRIVAL METHOD) inactive; negative

O=[N+]([O-])c1ccc(-c2ncn[nH]2)o1
active: Test System: E. COLI, Strain/Indicator: WP2 UVRA, Metabolic Activation: NONE, Method: SPOT active; positive

Cc1ccc2c(C)c3ccc4ccccc4c3nc2c1
active: Test System: AMES SALMONELLA TYPHIMURIUM, Strain/Indicator: TA97A, Metabolic Activation: NONE, Method: PREINCUBATION active; positive | Test System: AMES SALMONELLA TYPHIMURIUM, Strain/Indicator: TA98, Metabolic Activation: NONE, Method: PREINCUBATION active; positive | Test System: AMES SALMONELLA TYPHIMURIUM, Strain/Indicator: TA100, Metabolic Activation: NONE, Method: PREINCUBATION active; positive | [7] active; positive | Test System: AMES SALMONELLA TYPHIMURIUM, Strain/Indicator: TA102, Metabolic Activation: NONE, Method: PREINCUBATION active; positive
